Six compounds from PMC9321810, “Antiviral Cyclopropane Acids from Deep-Sea-Derived Fungus Aspergillus sydowii” (Marine Drugs, 2022) can be followed below.

Series [1] concerns influenza virus A/WSN/33 (H1N1). Nature of the series: cytopathic effect (CPE) reduction assay, anti-influenza virus. It is filed as cell-based, influenza A/WSN/33 (H1N1).
Another series in a line: in vitro. The conditions noted are these: dog.
[2] abbreviates: H1N1|WSN, MDCK, 40 h, read-out: IC50, inhibitory activity against influenza virus A/WSN/33 (H1N1), infected MDCK cells, MOI = 0.1, 40 h incubation, CellTiter-Glo readout.

Where two headings read alike, the source gives them in different places. Some results are limits rather than exact numbers.

Turning to `COC(=O)C(O)CC(=O)C1(C)C(C)C1CCC(C)=O` (centres unmarked) [Compound 1, sydocyclopropane A], the IC50 in series [1] (setting [2]) is 26.7 ± 0.9 µM. The same compound came in with a CC50 at 40 h in the series “in vitro” above 100 µM. On to `CC(=O)C1(C)C(C)C1CC(=O)O` (centres unmarked) [Compound 2, Sydocyclopropane B], for which the IC50 in series [1] (setting [2]) came to 29.5 ± 1.4 µM. For the same compound, in “in vitro”, the CC50 at 40 h was above 100 µM. In the case of `CC(=O)CCC1C(C)C1(C)C(=O)O` (centres unmarked) [Compound 3, sydocyclopropane C], the IC50 in series [1] (setting [2]) was 77.2 ± 0.5 µM. In the series “in vitro”, this compound returned a CC50 at 40 h above 100 µM. As to `CC(=O)CCC1C(C)C1(C)C(=O)O` (centres unmarked) [Compound 4, sydocyclopropane D], in series [1] (read-out: IC50, inhibitory activity against influenza virus A/WSN/33 (H1N1), infected MDCK cells, MOI = 0.1, 40 h incubation, CellTiter-Glo readout), the IC50 was determined as 66.4 ± 1.7 µM. In the case of `CC(=O)C=CC1C(C)C1(C)C(C)=O` (centres unmarked) [Compound 5, hamavellone B], the IC50 in series [1] (setting [2]) turned out to be 35.8 ± 3.2 µM. In the series “in vitro”, this compound returned a CC50 at 40 h above 100 µM.

Regarding `CCOC(=O)C1=C[C@@H](OC(CC)CC)[C@H](NC(C)=O)[C@@H](N)C1` [OSV, oseltamivir, reference compound], the IC50 in series [1] (setting [2]) came out at 18.1 ± 1.2 µM. In “in vitro”, this compound displayed a CC50 at 40 h above 100 µM.
